This passage reports IC50 results from PubChem BioAssay AID2305 (GlaxoSmithKline (GSK), 2010).

The subject of this assay is P. falciparum 3D7 growth, pLDH absorbance. Description: P. falciparum 3D7 growth inhibition, dose response, strain 3D7 (AID 2305).

The IC50 is the concentration that gives 50% inhibition. Consider `Cc1noc(C)c1-c1cccc(CNCc2ccc(-c3ccc(-c4nc5ccc(C(F)(F)F)cc5[nH]4)cc3)cc2)c1`, for which the IC50 was determined as 170 nM.

On to `Cc1cccc2[nH]c(-c3ccc(-c4ccc(CN5CCN(CC6CCCN(C)C6)CC5)cc4)s3)nc12` (stereo not drawn), for which the half-inhibitory concentration (IC50) is 140 nM. With `CC1(C)N=C(N)N=C(N)N1CCc1ccccc1` the figure was 50 nM; with `NC1=NC(c2ccccc2)N(c2ccc(Cl)c(Cl)c2)C(N)=N1` (stereo not drawn), 10 nM; with `CC(=O)N/N=C/[C@H](CCc1ccccc1)NC(=O)[C@H](CC(C)C)NC(=O)c1ccc(OCCN2CCOCC2)cc1`, 220 nM.

With `CC1(CCc2ccccc2)N=C(N)N=C(N)C1c1ccc(Cl)c(Cl)c1` (stereo not drawn), the IC50 is 320 nM. With `Cc1[nH]c(C)c(-c2ccc(-c3cccc(OC(F)(F)F)c3)nc2)c(=O)c1Cl` the figure was 70 nM; with `CN1CCC(NCc2ccc(-c3cccc(S(=O)(=O)NCc4ccccc4)c3)cc2)CC1`, 320 nM; with `Cc1cccc2[nH]c(-c3ccc(-c4cccc(CNC(C)C)c4)s3)nc12`, 230 nM. For the molecule `CCCc1cc(OC)c(CC2c3cc(O)c(Cl)cc3CCN2C)cc1OC` (stereo not drawn), the concentration for half-maximal inhibition (IC50) was 570 nM. For `O=C(C1CCN(C(c2ccccc2)c2ccc(Cl)c(Cl)c2)CC1)N1CC=CC1` (stereo not drawn) the value was 720 nM; for `CC(C)CCN1CCC(Oc2ccc(NC(=O)c3cccs3)cc2Cl)CC1`, 340 nM; for `CN(C)CCCOc1cc(NC(=O)Nc2ccc(-c3ccncc3)c3ccccc23)ccc1I`, 700 nM.

In turn, `COc1ccc(NC(=O)c2ccc(C=Cc3ccc(C(F)(F)F)cc3)cc2)cc1N1CCN(C)CC1` displayed an IC50 of 420 nM.

Molecule `CCN(CC)C(=O)C1CCCN(c2cc(C)nc(Nc3ccc(Cl)cc3)n2)C1` (stereo not drawn) gave an IC50 of 720 nM. Against the preceding molecule, the IC50 is about 1.7-fold higher. Take `CN(C)CCN1CCN(Cc2cccc(-c3csc(-c4nc5ccccc5[nH]4)c3)c2)CC1`: the concentration for half-maximal inhibition (IC50) was determined as 400 nM. This IC50 is about 1.8-fold lower than that of the molecule before. `O=C(NCCCCN1CCC(c2ccc3c(c2OCC2COCO2)CCCC3)CC1)c1ccc(-c2ccc(C(F)(F)F)cc2)cc1` (stereo not drawn): the IC50 stood at 870 nM. For `N#Cc1c(-c2ccccc2)cn2c1[nH]c(=O)c1ccccc12`, the concentration for half-maximal inhibition (IC50) was determined as 110 nM. With `CN1CCC=C(C(=O)NCC(C)(C)c2nc(-c3ccc(Cl)c(O)c3)c(-c3ccncc3)[nH]2)C1` the figure was 1000 nM; with `O=C(Nc1ccc(CN2CCOCC2)cc1)c1ccc(-c2ccc(Cl)cc2)o1`, 860 nM; with `CCCN(C(=O)c1ccccc1C)c1nnc(-c2cccc(C)c2)s1`, 900 nM.

Regarding `O=C(NCCNc1nc(NCCNC(=O)Nc2ccccc2)c2ccc(=O)n(-c3c(F)cccc3F)c2n1)Nc1ccccc1`, the IC50 is 170 nM. For `O=[N+]([O-])c1cccc(CNC2CCN(Cc3ccc(-c4ccccc4)cc3)CC2)c1` the value was 230 nM. For the molecule `c1ccc(-c2nnc(-c3ccccn3)nc2NC2CCCCC2)cc1`, the IC50 stood at 910 nM. Against the preceding molecule, the IC50 is about 4-fold higher. For `O=C(NCCCNc1nc2ccccc2[nH]1)c1cccc(OC(F)(F)F)c1` the value was 570 nM. For the molecule `COC(=O)c1ccc(CC(C)NCC(O)c2ccc3ccc4ccccc4c3c2)cc1` (stereo not drawn), the concentration for half-maximal inhibition (IC50) is 220 nM. With `O=C(O)c1ccc2nc(-c3ccccn3)c(-c3ccccn3)nc2c1` the figure was 220 nM; with `Cc1cccc2[nH]c(-c3cccc(-c4cccc(NC(=O)c5cccnc5)c4)c3)nc12`, 230 nM; with `CC(=O)Nc1nc(C(=O)Nc2cccc(-c3cccc(-c4nc5ccccc5[nH]4)c3)c2)cs1`, 170 nM. Turning to `CC1(C)N=C(N)N=C(N)N1O`, the 50% inhibitory concentration (IC50) came to 190 nM. In turn, `CCCCCCN1CCC(NCc2cccc([N+](=O)[O-])c2)CC1` displayed a 50% inhibitory concentration (IC50) of 670 nM. For `O=C(/C=C/c1ccc(Cl)c(Cl)c1)NCCCCCCN1CCCN(C(=O)Nc2ccc(Cl)c(Cl)c2)CC1` the value was 670 nM; for `O=C(N[C@H]1CCN(Cc2ccc(OCCCN3CCCCC3)cc2)C1)c1ccc2ccccc2c1`, 760 nM; for `CCN(CC)c1nc(N)c2c(N)nc3c(c2c1C#N)C(=O)CN3Cc1ccccc1`, 70 nM. For `Cc1cc(N[C@@H](CC(C)C)C(=O)NCc2cccs2)nc(Nc2ccccc2)n1` the value was 1130 nM; for `COc1ccc(C2CNCc3c2cc(OC)c(OC)c3Cl)cc1` (stereo not drawn), 730 nM; for `Cc1cccc2[nH]c(-c3cccc(-c4cccc(NC(=O)Cc5cnc[nH]5)c4)c3)nc12`, 670 nM. `CN(c1ccc(NC(=O)CCOc2ccccc2)cc1)C1CCN(Cc2cccc(O)c2)CC1` displayed an IC50 of 1320 nM. As for `O=C(Nc1nc(-c2ccccn2)cc2ccccc12)c1cccc(Cl)c1`, the IC50 came out at 750 nM. This IC50 lies about 1.8-fold lower than the previous one. For `COc1ccccc1NC(=O)Nc1cccc(-c2cccc(-c3nc4ccc(C(F)(F)F)cc4[nH]3)c2)c1` the value was 120 nM. With `CC(Cc1ccc(CN2CCN(Cc3ccccc3)CC2)cc1)NCC(O)c1cccc(C(F)(F)F)c1` (stereo not drawn) the figure was 890 nM; with `O=C(NCc1cc2c(cc1Cl)OCO2)c1ccc(CNC2CCN(Cc3ccccc3)CC2)cc1`, 830 nM; with `NS(=O)(=O)c1cccc(-c2ccc3nccc(-c4cccc(S(N)(=O)=O)c4)c3c2)c1`, 1270 nM.

Molecule `COc1cccc(-c2cc(C(=O)Nc3ccc4nc(-c5ccccc5)[nH]c4c3)[nH]n2)c1` yielded an IC50 of 840 nM.

The molecule `Cc1cccc(CN2CCN(c3ncc(C(=O)NC4CC4)cc3Cl)CC2)c1` gave a 50% inhibitory concentration (IC50) of 1310 nM. This IC50 lies about 1.6-fold higher than the previous one. For `Fc1ccc(Nc2ccnc3cc(-c4cccc(CN5CCCCC5)c4)ccc23)c(Cl)c1` the value was 30 nM; for `O=C(NC1CCN(CC2(c3ccccc3)CCCC2)CC1)c1[nH]ncc1Cl`, 1040 nM; for `c1ccc(-c2nc(Nc3ccncc3)sc2-c2ccccc2)cc1`, 810 nM. For `COc1ccc2nccc([C@@H](O)CN3CCC(NC(=O)c4ccc(Cl)c(Cl)c4)CC3)c2c1` the value was 610 nM; for `O=S(=O)(Nc1ccc(CCN2CCC(N3CCCCC3)CC2)cc1)c1cccc(C(F)(F)F)c1`, 700 nM; for `O=C(Cc1cccc(O)c1)NCC(Cc1ccc(O)cc1)c1ccccc1` (stereo not drawn), 640 nM. On to `Cc1cc(C2CCN(CCCCNC(=O)c3ccc(-c4ccc(C(F)(F)F)cc4)cc3)CC2)c(C)cc1OCCOC1CCCCO1` (stereo not drawn), for which the IC50 was 790 nM.

On to `CC(C)C(=O)NC(c1cccs1)c1cc(Cl)c2cccnc2c1O` (stereo not drawn), for which the IC50 was 580 nM.

For `Cc1cccc(-n2nc(C)c3c2NC(=O)CC3C(=O)c2ccc(Cl)s2)c1` (stereo not drawn), the half-inhibitory concentration (IC50) worked out at 470 nM.

`O=C(N[C@@H](Cc1ccccc1)C(=O)O)c1cc(-c2ccc(F)cc2)no1` (tested in a mixture with another compound) returned a half-maximal inhibitory concentration (IC50) of 800 nM. In turn, `Oc1ccccc1CNCC(O)c1cc(C(F)(F)F)cc(C(F)(F)F)c1` (stereo not drawn) returned an IC50 of 180 nM. With `Cc1cc(C)c(NC(=O)NC2CCN(CCCCCNC(=O)/C=C/c3ccc(Cl)c(Cl)c3)CC2)c(C)c1` the figure was 800 nM; with `COC[C@H]1CCCN1Cc1ccc(-c2ccc(-c3nc4ccccc4[nH]3)s2)cc1`, 1000 nM; with `Cc1cccc(Cl)c1S(=O)(=O)N1CCCCC(c2ccc(C(F)(F)F)cc2)=N1`, 220 nM. For `Nc1ncc(-c2ccc(F)c(Cl)c2)c(N)n1` the value was 1230 nM; for `CC(=O)Nc1cccc(C(=O)Nc2cccc(-c3ccc(-c4nc5ccc(F)cc5[nH]4)s3)c2)c1`, 900 nM. For `Cc1cccc2[nH]c(-c3ccc(-c4ccc(CN5CCCC(O)C5)cc4)s3)nc12` (stereo not drawn) the value was 830 nM; for `N#Cc1ccc(N2C[C@@H](OCc3ccccc3)C[C@H]2C(=O)NCCC(c2ccccc2)c2ccccc2)c2ccccc12`, 860 nM.
